Results as given in patent US20240116985A1, “STAPLED PEPTIDES AND METHODS THEREOF” (priority 2020, published 2024).

These compounds were tested against T1, full-length beta-Catenin (Uniprot ID P35222) (Homo sapiens, UniProt P35222) (assay: Fluorescence polarization IC50 (beta-catenin / 5FAM-TCF4 10-53 competition)). Settings: beta-Catenin FP IC50, fluorescence polarization.
T1 construct: 10 nM full-length beta-Catenin (Uniprot ID P35222)
T1 sequence (P35222 1-781): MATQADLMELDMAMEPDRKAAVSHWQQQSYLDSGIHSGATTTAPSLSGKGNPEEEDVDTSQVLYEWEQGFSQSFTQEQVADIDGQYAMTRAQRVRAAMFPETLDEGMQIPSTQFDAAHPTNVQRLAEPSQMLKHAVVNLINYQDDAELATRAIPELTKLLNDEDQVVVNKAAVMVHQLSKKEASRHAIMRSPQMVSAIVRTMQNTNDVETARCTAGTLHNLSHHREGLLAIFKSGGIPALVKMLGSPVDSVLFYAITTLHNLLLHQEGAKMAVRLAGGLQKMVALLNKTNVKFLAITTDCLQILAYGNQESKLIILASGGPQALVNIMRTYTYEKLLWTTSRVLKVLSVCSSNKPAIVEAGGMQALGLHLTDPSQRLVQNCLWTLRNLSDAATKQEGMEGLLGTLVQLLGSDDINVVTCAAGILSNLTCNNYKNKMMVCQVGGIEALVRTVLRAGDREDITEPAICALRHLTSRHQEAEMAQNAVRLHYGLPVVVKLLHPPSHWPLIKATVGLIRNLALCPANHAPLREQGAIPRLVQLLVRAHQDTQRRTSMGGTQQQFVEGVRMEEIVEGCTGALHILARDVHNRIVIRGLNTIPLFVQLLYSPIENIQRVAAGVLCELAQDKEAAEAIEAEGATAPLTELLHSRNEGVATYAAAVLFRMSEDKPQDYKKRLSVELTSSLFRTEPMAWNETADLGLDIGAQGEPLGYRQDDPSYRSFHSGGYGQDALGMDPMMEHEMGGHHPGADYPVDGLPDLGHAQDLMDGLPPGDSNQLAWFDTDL
Type: binding

Row | Compound | IC50
1 | CC(=O)N1CCC[C@]12CC=CCCCC1(CCCC=CCCCOC(=O)N3CC[C@@](C(=O)N[C@@H](Cc4ccsc4)C(=O)N[C@@H](Cc4csc5ccccc45)C(=O)N[C@@H](CC(C)C)C(N)=O)(C3)NC(=O)[C@H](CC(C)C)NC(=O)[C@H](Cc3ccccc3)NC(=O)[C@H](C)NC(=O)[C@H](C)NC(=O)[C@H](CC(=O)O)NC(=O)[C@H](CC(=O)O)NC1=O)NC(=O)[C@H]([C@@H](C)O)NC(=O)[C@H](CC(=O)O)NC2=O (stereo partly drawn) [I-1415, Ac-PL3-Asp-Thr-B5-Asp-Asp-Ala-Ala-Phe-Leu-PyrS2-3Thi-BztA-Leu-NH2] | 72 nM

Same assay, conditions: fluorescence polarization; read-out: beta-Catenin FP IC50

Row | Compound | IC50
2 | CC(=O)N1Cc2cccc(c2)OCC=CCCCC2(CCCC=CCCCOC(=O)N3CC[C@@](C(=O)N[C@@H](Cc4ccsc4)C(=O)N[C@@H](Cc4csc5ccccc45)C(=O)N[C@@H](CCC(N)=O)C(N)=O)(C3)NC(=O)[C@H](CC(C)C)NC(=O)[C@H](Cc3ccccc3)NC(=O)[C@H](C)NC(=O)[C@H](C)NC(=O)[C@H](CN(CC(=O)O)CC(F)(F)F)NC(=O)[C@H](CC(=O)O)NC2=O)NC(=O)[C@H](CC(C)(C)C)NC(=O)[C@@H]1CC(=O)O (stereo partly drawn) [I-2550, Bn3OAllyl-AcAsp-Npg-B5-Asp-TfeGA-Ala-Ala-Phe-Leu-PyrS2-3Thi-BztA-Gln-NH2] | 1720 nM
3 | CC(=O)N1CCC[C@]12CC=CCCCC1(CCCC=CCCCOC(=O)N3CC[C@@](C(=O)N[C@@H](Cc4ccsc4)C(=O)N[C@@H](Cc4csc5ccccc45)C(=O)N[C@@H](CCC(N)=O)C(N)=O)(C3)NC(=O)[C@H](CC(N)=O)NC(=O)[C@H](Cc3ccccc3)NC(=O)[C@H](C)NC(=O)[C@H](C)NC(=O)[C@H](CC(=O)O)NC(=O)[C@H](CC(=O)O)NC1=O)NC(=O)[C@H](CC(C)(C)C)NC(=O)[C@H](CC(C)C)NC2=O (stereo partly drawn) [I-1226, Ac-PL3-Leu-Npg-B5-Asp-Asp-Ala-Ala-Phe-Asn-PyrS2-3Thi-BztA-Gln-NH2] | 559 nM
4 | CC(=O)N1CCC[C@]12CCCCCCC1(CCCCCCCCOC(=O)N3CC[C@@](C(=O)N[C@@H](Cc4ccccc4C#N)C(=O)N[C@@H](Cc4csc5ccccc45)C(=O)N[C@@H](CCC(N)=O)C(N)=O)(C3)NC(=O)[C@H](CC(C)C)NC(=O)[C@H](Cc3ccccc3)NC(=O)[C@H](C)NC(=O)[C@H](C)NC(=O)[C@H](CN(CC(=O)O)CC(F)(F)F)NC(=O)[C@H](CC(=O)O)NC1=O)NC(=O)[C@H](CC(C)(C)C)NC(=O)[C@H](CC(=O)O)NC2=O (stereo partly drawn) [I-1712, Ac-PL3-Asp-Npg-B5-Asp-TfeGA-Ala-Ala-Phe-Leu-PyrS2-2CNF-BztA-Gln-NH2] | 597 nM
5 | CC(=O)N1CCC[C@]12CC=CCCCC1(CCCC=CCCCOC(=O)N3CC[C@@](C(=O)N[C@@H](Cc4ccccc4)C(=O)N[C@@H](Cc4csc5ccccc45)C(=O)N[C@@H](CCC(N)=O)C(N)=O)(C3)NC(=O)[C@H](CC(C)C)NC(=O)[C@H](Cc3ccccc3)NC(=O)[C@H](C)NC(=O)[C@H](CCO)NC(=O)[C@H](CCC(N)=O)NC(=O)[C@H](CC(=O)O)NC1=O)NC(=O)[C@H](CC1CCCCC1)NC(=O)[C@H](CC(N)=O)NC2=O (stereo partly drawn) [I-2355, Ac-PL3-Asn-Cha-B5-Asp-Gln-Hse-Ala-Phe-Leu-PyrS2-Phe-BztA-Gln-NH2] | 417 nM
6 | CC(=O)N1CCC[C@]12CC=CCCCC1(CCCC=CCCOC(=O)N3CC[C@@](C(=O)N[C@@H](Cc4ccsc4)C(=O)N[C@@H](Cc4csc5ccccc45)C(=O)N[C@@H](CCC(N)=O)C(N)=O)(C3)NC(=O)[C@H](CC(N)=O)NC(=O)[C@H](Cc3ccccc3)NC(=O)[C@H](C)NC(=O)[C@H](C)NC(=O)[C@H]([C@@H](C)O)NC(=O)[C@H](CC(N)=O)NC1=O)NC(=O)[C@H](CC(C)(C)C)NC(=O)[C@H](CC(=O)O)NC2=O (stereo partly drawn) [I-2197, Ac-PL3-Asp-Npg-B5-Asn-Thr-Ala-Ala-Phe-Asn-PyrS1-3Thi-BztA-Gln-NH2] | 2450 nM
7 | CC(=O)N1CCC[C@]12CC=CCCCC1(CCCC=CCCCOC(=O)N3CC[C@@](C(=O)N[C@@H](Cc4ccccc4)C(=O)N[C@@H](Cc4csc5ccccc45)C(=O)N[C@@H](CCC(N)=O)C(N)=O)(C3)NC(=O)[C@H](CO)NC(=O)[C@H](Cc3ccccc3)NC(=O)[C@H](C)NC(=O)[C@H](CCCCNC(C)C)NC(=O)[C@H]([C@@H](C)O)NC(=O)[C@H](CC(=O)O)NC1=O)NC(=O)[C@H](CC(C)(C)C)NC(=O)[C@H](CC(N)=O)NC2=O (stereo partly drawn) [I-1601, Ac-PL3-Asn-Npg-B5-Asp-Thr-iPrLys-Ala-Phe-Ser-PyrS2-Phe-BztA-Gln-NH2] | 2020 nM
8 | CC(=O)N1CCC[C@]12CC=CCCCC1(CCCC=CCCCOC(=O)N3CC[C@@](C(=O)N[C@@H](Cc4ccsc4)C(=O)N[C@@H](Cc4csc5ccccc45)C(=O)N[C@@H](CCC(N)=O)C(N)=O)(C3)NC(=O)[C@H](CC(N)=O)NC(=O)[C@H](Cc3ccccc3)NC(=O)[C@H](C)NC(=O)[C@H](C)NC(=O)[C@H]([C@@H](C)O)NC(=O)[C@H](CC(N)=O)NC1=O)NC(=O)[C@H](CC(C)(C)C)NC(=O)[C@H](CN(CC(=O)O)CC(F)(F)F)NC2=O (stereo partly drawn) [I-2131, Ac-PL3-TfeGA-Npg-B5-Asn-Thr-Ala-Ala-Phe-Asn-PyrS2-3Thi-BztA-Gln-NH2] | 3220 nM
9 | CC(=O)N1CCC[C@]12CC=CCCCC1(CCCC=CCCCOC(=O)N3CC[C@](C(=O)N[C@@H](Cc4ccsc4)C(=O)N[C@@H](Cc4csc5ccccc45)C(=O)N[C@@H](CCC(N)=O)C(N)=O)(C3)NC(=O)[C@H](CC(C)C)NC(=O)[C@H](Cc3ccccc3)NC(=O)[C@H](C)NC(=O)[C@H](C)NC(=O)[C@H](CC(=O)O)NC(=O)[C@H](CC(=O)O)NC1=O)NC(=O)[C@H](CC(C)(C)C)NC(=O)[C@H](CC(=O)O)NC2=O (stereo partly drawn) [I-2019, Ac-PL3-Asp-Npg-B5-Asp-Asp-Ala-Ala-Phe-Leu-PyrR2-3Thi-BztA-Gln-NH2] | 1450 nM
10 | CC(=O)N1CCC[C@]12CCCCCC1(CCCCCCOC(=O)N3CC[C@@](C(=O)N[C@@H](Cc4ccsc4)C(=O)N[C@@H](Cc4csc5ccccc45)C(=O)N[C@@H](CCC(N)=O)C(N)=O)(C3)NC(=O)[C@H](CC(C)C)NC(=O)[C@H](Cc3ccccc3)NC(=O)[C@H](C)NC(=O)[C@H](C)NC(=O)[C@H](CC(=O)O)NC(=O)[C@H](CC(=O)O)NC1=O)NC(=O)[C@H](CC(C)(C)C)NC(=O)[C@H](CC(=O)O)NC2=O (stereo partly drawn) [I-1974, Ac-PL3-Asp-Npg-B4-Asp-Asp-Ala-Ala-Phe-Leu-PyrS1-3Thi-BztA-Gln-NH2] | 324 nM
11 | CC(=O)NCCCC[C@H](NC(=O)[C@H](Cc1csc2ccccc12)NC(=O)[C@H](Cc1ccsc1)NC(=O)[C@]12CCN(C1)C(=O)OCCCCCCCCC1(CCCCCC[C@]3(CCCN3C(C)=O)C(=O)N[C@@H](CC(=O)O)C(=O)N[C@@H](CC(C)(C)C)C(=O)N1)C(=O)N[C@@H](CC(=O)O)C(=O)N[C@@H](CN(CC(=O)O)CC(F)(F)F)C(=O)N[C@@H](C)C(=O)N[C@@H](C)C(=O)N[C@@H](Cc1ccccc1)C(=O)N[C@@H](CC(C)C)C(=O)N2)C(N)=O (stereo partly drawn) [I-1719, Ac-PL3-Asp-Npg-B5-Asp-TfeGA-Ala-Ala-Phe-Leu-PyrS2-3Thi-BztA-AcLys-NH2] | 187 nM
12 | CC(=O)N[C@]1(C)CCCCCCC2(CCCCCCCCOC(=O)N3CC[C@@](C(=O)N[C@@H](Cc4ccccc4C(F)(F)F)C(=O)N[C@@H](Cc4csc5ccccc45)C(=O)N[C@@H](CCC(N)=O)C(N)=O)(C3)NC(=O)[C@H](CC(C)C)NC(=O)[C@H](Cc3ccccc3)NC(=O)[C@H](C)NC(=O)[C@H](C)NC(=O)[C@H](Cc3cccc(C(=O)O)c3)NC(=O)[C@H](CC(=O)O)NC2=O)NC(=O)[C@H](CC(C)(C)C)NC(=O)[C@H](CC(=O)O)NC1=O (stereo partly drawn) [I-2570, Ac-R3-Asp-Npg-B5-Asp-3COOHF-Ala-Ala-Phe-Leu-PyrS2-2F3MeF-BztA-Gln-NH2] | 1280 nM
13 | CC(=O)N1CCC[C@H]1C(=O)N[C@@H](CC(=O)O)C(=O)N[C@@H](CC(C)(C)C)C(=O)N[C@]1(C)CCCCCCCCOC(=O)N2CC[C@@](C(=O)N[C@@H](Cc3ccsc3)C(=O)N[C@@H](Cc3csc4ccccc34)C(=O)N[C@@H](CCC(N)=O)C(N)=O)(C2)NC(=O)[C@H](CC(C)C)NC(=O)[C@H](Cc2ccccc2)NC(=O)[C@H](C)NC(=O)[C@H](C)NC(=O)[C@H](CC(=O)O)NC(=O)[C@H](CC(=O)O)NC1=O [I-1810, Ac-Pro-Asp-Npg-R5-Asp-Asp-Ala-Ala-Phe-Leu-PyrS2-3Thi-BztA-Gln-NH2] | 416 nM
14 | CC(=O)N1CCC[C@]12CC=CCCCC1(CCCC=CCCCOC(=O)N3CC[C@@](C(=O)N[C@@H](Cc4cccc(-c5ccccc5)c4)C(=O)N[C@@H](CC4CCC4)C(=O)N[C@@H](CCC(N)=O)C(N)=O)(C3)NC(=O)[C@H](CC(C)C)NC(=O)[C@H](Cc3ccccc3)NC(=O)[C@H](C)NC(=O)[C@H](C)NC(=O)[C@H](Cc3cccc(C(=O)O)c3)NC(=O)[C@H](CC(=O)O)NC1=O)NC(=O)[C@H](CC(C)(C)C)NC(=O)[C@H](CC(=O)O)NC2=O (stereo partly drawn) [I-2255, Ac-PL3-Asp-Npg-B5-Asp-3COOHF-Ala-Ala-Phe-Leu-PyrS2-[Ph]3SF-Cba-Gln-NH2] | 7650 nM
15 | CC(=O)N1CCC[C@]12CC=CCCCC1(CCCC=CCCCOC(=O)N3CC[C@@](C(=O)N[C@@H](Cc4ccsc4)C(=O)N[C@@H](Cc4ccc(F)c(F)c4)C(=O)N[C@@H](CO)C(N)=O)(C3)NC(=O)[C@H](CC(C)C)NC(=O)[C@H](Cc3ccccc3)NC(=O)[C@H](C)NC(=O)[C@H](C)NC(=O)[C@H](CC(=O)O)NC(=O)[C@H](CC(=O)O)NC1=O)NC(=O)[C@H](CC(C)(C)C)NC(=O)[C@H](CC(=O)O)NC2=O (stereo partly drawn) [I-1428, Ac-PL3-Asp-Npg-B5-Asp-Asp-Ala-Ala-Phe-Leu-PyrS2-3Thi-34FF-Ser-NH2] | 41 nM
